In patent US20150133369A1, “PHARMACOKINETIC MODULATION WITH ALISPORIVIR” (priority 2012, published 2015):
pIC50, pKi: −log10 of the molar value. Like-named read-outs stand apart in the source and are kept apart here.

Legend:
[1] = clinical drug-drug interaction study: effect of alisporivir on azithromycin (CYP3A4 substrate) pharmacokinetics; type: in vivo, human; conditions: single 1200 mg oral dose of alisporivir; single oral 1000 mg dose of azithromycin
[2] = clinical drug-drug interaction study: effect of alisporivir on valsartan (CYP2C9, OATP1B1, OATP1B3, MRP2 substrate) pharmacokinetics; conditions: alisporivir 600 mg BID for 7 days; single oral 40 mg dose of valsartan
[3] = effect of alisporivir on circulating bilirubin concentrations in healthy subjects; conditions: 40 mg valsartan before and after alisporivir 600 mg BID 7 days then QD
[4] = clinical drug-drug interaction study: effect of alisporivir on digoxin (P-gp substrate) pharmacokinetics; type: in vivo, human; conditions: alisporivir 600 mg BID for 7 days; single oral 0.25 mg dose of digoxin
Protocol: Digoxin 0.25 mg is generally initiated in patients under the age of 70 with good renal function. When digoxin is taken with food high in bran fiber, the amount absorbed from an oral dose may be reduced.

[5] = human, in vivo, po
[6] = human, in vivo, po; remark: listed apart in the source
[7] = target: T1, UGT1A1 (Homo sapiens, UniProt P22309)
T1 sequence (P22309 26-533): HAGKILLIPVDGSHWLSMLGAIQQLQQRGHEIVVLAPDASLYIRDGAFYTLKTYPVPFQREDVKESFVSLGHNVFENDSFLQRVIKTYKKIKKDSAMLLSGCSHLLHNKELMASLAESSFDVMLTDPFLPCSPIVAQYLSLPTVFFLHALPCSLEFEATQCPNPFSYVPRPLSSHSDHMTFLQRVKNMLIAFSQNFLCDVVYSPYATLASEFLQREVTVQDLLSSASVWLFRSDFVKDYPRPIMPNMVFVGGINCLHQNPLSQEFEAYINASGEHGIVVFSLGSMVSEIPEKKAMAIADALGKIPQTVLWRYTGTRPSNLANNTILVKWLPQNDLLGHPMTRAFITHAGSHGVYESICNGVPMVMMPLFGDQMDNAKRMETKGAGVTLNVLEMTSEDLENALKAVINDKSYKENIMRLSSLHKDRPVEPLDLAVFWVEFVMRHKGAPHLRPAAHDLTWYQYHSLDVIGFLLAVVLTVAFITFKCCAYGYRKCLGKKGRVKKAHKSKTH

[8] = target: P-gp (Homo sapiens, UniProt P08183); conditions: not told
[9] = target: T2, OATP1B3 (Homo sapiens, UniProt Q9NPD5)
T2 sequence (Q9NPD5 1-702): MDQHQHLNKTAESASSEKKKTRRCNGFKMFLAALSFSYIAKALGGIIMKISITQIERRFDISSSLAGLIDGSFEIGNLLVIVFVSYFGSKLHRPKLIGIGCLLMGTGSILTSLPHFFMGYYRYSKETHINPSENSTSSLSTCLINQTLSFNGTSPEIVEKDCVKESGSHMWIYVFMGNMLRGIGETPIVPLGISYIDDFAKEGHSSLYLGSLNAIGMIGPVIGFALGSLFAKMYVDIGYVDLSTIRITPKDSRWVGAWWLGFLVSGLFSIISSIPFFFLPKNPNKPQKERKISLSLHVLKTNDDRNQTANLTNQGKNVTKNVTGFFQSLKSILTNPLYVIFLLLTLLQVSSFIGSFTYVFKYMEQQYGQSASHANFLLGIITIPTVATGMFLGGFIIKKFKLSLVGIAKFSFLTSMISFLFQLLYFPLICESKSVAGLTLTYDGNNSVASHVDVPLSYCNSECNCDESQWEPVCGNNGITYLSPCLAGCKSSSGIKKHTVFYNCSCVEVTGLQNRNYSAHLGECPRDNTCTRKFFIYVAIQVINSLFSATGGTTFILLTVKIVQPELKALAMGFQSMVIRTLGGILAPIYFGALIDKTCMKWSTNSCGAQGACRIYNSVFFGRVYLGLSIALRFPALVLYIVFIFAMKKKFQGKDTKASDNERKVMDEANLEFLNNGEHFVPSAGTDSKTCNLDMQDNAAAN

[10] = target: T2, OATP1B3; remark: listed apart in the source
[11] = target: T3, MRP2 (Homo sapiens, UniProt Q92887); conditions: not told
[12] = target: CYP3A4 (Homo sapiens, UniProt P08684)
[13] = target: T4, UGT2B7 (Homo sapiens, UniProt P16662)
T4 sequence (P16662 24-529): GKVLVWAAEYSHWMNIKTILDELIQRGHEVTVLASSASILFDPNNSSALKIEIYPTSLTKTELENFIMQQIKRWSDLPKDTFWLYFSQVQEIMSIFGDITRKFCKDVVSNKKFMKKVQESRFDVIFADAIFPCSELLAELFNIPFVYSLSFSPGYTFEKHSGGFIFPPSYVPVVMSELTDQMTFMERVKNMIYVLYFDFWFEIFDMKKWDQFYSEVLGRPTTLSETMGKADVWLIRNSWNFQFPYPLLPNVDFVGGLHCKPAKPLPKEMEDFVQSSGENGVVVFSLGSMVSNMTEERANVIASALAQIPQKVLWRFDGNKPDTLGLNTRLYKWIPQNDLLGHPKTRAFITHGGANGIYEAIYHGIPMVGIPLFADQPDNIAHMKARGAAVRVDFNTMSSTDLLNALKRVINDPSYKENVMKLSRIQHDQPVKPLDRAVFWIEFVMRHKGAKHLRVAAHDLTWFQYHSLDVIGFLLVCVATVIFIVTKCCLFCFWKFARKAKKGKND

[14] = test system: CYP isozymes
[15] = human, in vivo, po; remark: listed apart in the source
[16] = target: T3, MRP2
[17] = target: BSEP (Homo sapiens, UniProt O95342)
[18] = target: T5, OATP1B1 (Homo sapiens, UniProt Q9Y6L6)
T5 sequence (Q9Y6L6 1-691): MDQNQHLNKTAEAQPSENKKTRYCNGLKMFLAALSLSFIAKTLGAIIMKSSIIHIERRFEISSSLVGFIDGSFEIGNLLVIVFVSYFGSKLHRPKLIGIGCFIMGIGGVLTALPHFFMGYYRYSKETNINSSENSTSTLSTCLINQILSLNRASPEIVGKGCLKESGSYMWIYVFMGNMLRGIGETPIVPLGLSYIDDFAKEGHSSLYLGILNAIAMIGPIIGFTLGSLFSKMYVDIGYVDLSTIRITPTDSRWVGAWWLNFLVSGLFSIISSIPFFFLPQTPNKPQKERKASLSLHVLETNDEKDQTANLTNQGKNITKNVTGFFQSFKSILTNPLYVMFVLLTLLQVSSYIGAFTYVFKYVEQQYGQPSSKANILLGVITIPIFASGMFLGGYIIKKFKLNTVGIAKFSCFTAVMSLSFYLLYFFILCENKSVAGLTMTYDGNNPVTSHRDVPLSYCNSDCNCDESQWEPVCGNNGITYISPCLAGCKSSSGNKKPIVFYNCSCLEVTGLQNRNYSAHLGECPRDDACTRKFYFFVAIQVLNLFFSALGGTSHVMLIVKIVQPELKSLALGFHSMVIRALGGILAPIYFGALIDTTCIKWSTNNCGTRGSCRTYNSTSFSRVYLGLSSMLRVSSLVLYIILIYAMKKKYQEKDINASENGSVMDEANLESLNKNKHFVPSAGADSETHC

[19] = target: T6, NTCP (Homo sapiens, UniProt Q14973)
T6 sequence (Q14973 1-349): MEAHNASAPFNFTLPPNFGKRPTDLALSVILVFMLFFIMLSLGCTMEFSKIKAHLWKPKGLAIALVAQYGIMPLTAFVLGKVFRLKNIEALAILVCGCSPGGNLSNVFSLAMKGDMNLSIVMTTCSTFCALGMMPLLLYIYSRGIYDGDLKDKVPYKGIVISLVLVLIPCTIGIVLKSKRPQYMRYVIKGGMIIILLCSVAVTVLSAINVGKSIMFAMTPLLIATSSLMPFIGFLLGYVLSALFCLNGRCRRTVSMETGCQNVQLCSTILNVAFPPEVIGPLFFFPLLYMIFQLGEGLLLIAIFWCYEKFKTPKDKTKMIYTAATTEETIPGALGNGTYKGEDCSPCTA

[20] = target: T5, OATP1B1; remark: listed apart in the source
[21] = test system: HIV-1; conditions: in vitro; more potent than CsA; cited from earlier work
[22] = clinical drug-drug interaction study: effect of alisporivir on telaprevir (CYP3A4 and P-gp substrate) pharmacokinetics; type: in vivo; conditions: healthy human subjects; alisporivir 600 mg BID for 7 day and 600 mg QD for one additional day; single 375 mg oral dose of telaprevir
Protocol: The T1/2 of telaprevir was longer when telaprevir was administered with alisporivir.

[23] = alisporivir 600 mg BID for 10 days; single 40 mg oral dose of atorvastatin
[24] = human, in vivo, po; remark: listed apart in the source
[25] = clinical drug-drug interaction study: effect of alisporivir on boceprevir (CYP3A4 and P-gp substrate) pharmacokinetics; type: in vivo; conditions: healthy human subjects; alisporivir 600 mg BID for 7 days and 600 mg QD for one additional day; single 400 mg oral dose of boceprevir
Protocol: The T1/2 of boceprevir was similar when boceprevir was administered with alisporivir.

[26] = clinical drug-drug interaction study: effect of alisporivir on buspirone (sensitive CYP3A4 substrate) pharmacokinetics; conditions: alisporivir 600 mg BID for 7 days; single oral 5 mg dose of buspirone

T3 sequence (Q92887 whole entry): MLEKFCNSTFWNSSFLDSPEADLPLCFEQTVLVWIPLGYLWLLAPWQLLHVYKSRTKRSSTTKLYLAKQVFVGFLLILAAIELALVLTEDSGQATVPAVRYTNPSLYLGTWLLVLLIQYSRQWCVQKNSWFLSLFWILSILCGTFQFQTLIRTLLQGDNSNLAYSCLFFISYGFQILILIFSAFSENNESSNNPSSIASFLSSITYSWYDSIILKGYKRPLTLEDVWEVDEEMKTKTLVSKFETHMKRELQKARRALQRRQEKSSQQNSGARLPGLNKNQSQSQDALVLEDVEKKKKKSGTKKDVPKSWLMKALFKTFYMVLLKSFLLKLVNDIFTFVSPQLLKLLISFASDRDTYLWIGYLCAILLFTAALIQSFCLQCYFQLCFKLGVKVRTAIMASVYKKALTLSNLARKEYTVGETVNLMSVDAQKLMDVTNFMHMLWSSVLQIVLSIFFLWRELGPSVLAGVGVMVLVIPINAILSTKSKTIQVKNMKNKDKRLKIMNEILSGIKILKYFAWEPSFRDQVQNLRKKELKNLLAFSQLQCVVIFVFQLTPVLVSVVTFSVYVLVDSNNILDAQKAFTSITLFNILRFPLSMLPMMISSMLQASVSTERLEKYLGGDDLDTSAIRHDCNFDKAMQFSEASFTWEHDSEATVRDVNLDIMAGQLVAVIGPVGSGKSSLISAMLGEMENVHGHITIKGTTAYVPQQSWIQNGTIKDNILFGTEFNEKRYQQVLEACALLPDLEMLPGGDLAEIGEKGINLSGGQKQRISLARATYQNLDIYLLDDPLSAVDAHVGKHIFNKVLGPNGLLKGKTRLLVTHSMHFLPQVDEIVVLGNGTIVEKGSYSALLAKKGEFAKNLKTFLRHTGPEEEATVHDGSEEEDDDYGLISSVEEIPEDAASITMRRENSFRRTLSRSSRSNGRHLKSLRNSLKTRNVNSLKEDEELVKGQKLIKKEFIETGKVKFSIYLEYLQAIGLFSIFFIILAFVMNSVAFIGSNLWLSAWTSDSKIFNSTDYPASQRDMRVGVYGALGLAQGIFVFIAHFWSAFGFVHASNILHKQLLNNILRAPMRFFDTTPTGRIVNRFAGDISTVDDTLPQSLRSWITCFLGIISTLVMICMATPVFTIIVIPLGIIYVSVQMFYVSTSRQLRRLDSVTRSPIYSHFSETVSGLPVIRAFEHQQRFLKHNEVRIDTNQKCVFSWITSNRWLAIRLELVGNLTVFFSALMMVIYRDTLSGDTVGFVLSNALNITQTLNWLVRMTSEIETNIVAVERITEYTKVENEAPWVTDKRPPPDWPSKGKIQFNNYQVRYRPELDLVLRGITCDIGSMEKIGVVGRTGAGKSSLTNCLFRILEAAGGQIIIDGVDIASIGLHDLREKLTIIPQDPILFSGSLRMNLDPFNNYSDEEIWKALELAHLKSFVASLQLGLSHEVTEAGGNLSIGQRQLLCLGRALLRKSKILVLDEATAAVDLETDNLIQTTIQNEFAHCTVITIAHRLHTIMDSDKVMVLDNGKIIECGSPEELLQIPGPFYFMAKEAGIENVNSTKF
CYP3A4, sequence (P08684 whole entry): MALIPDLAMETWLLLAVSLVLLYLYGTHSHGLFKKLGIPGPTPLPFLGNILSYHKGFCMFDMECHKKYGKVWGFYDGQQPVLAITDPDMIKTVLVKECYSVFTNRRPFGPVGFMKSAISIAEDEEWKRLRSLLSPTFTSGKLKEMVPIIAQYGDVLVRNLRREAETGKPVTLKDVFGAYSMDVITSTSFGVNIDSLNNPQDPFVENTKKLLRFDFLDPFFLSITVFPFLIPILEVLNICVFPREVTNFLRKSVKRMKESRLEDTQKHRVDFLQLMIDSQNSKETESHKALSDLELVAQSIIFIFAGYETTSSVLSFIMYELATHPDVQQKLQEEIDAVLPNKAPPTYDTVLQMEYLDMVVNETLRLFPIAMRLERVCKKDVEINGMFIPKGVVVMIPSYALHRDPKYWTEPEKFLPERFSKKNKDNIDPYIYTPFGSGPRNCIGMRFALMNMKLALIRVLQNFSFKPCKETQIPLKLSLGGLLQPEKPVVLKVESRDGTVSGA
BSEP, sequence (O95342 whole entry): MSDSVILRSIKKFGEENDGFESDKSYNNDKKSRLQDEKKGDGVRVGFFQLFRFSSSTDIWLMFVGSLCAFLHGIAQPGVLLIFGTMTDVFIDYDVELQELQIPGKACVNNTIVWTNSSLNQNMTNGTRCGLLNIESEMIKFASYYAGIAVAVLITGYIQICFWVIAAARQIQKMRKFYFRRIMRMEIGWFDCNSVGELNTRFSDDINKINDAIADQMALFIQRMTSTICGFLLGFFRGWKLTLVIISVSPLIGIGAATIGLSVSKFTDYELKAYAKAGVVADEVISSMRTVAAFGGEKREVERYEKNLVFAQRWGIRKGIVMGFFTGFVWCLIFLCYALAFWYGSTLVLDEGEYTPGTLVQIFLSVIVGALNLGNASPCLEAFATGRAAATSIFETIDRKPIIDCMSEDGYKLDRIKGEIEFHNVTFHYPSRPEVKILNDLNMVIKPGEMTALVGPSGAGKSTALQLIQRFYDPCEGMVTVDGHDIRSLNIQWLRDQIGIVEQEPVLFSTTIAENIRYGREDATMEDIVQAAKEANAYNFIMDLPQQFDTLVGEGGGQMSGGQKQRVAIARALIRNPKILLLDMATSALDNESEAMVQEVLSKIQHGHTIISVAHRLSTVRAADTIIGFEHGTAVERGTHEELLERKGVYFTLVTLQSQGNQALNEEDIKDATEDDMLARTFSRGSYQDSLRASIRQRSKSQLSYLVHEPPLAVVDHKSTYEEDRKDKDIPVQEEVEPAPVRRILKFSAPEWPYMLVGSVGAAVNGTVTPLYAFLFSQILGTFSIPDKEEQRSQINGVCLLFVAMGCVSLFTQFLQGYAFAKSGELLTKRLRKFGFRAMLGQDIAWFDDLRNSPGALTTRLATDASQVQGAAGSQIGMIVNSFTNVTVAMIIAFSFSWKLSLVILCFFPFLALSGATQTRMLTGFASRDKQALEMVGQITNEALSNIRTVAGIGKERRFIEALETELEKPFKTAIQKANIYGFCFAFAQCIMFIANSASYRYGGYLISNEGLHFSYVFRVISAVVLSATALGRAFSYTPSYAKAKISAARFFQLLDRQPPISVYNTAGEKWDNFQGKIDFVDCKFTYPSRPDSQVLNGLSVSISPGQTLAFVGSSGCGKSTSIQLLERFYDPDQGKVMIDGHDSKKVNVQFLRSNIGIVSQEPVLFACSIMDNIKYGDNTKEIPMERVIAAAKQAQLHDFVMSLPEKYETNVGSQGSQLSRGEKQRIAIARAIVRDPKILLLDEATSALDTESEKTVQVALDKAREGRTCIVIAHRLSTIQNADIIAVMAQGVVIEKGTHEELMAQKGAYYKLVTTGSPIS
P-gp, sequence (P08183 whole entry): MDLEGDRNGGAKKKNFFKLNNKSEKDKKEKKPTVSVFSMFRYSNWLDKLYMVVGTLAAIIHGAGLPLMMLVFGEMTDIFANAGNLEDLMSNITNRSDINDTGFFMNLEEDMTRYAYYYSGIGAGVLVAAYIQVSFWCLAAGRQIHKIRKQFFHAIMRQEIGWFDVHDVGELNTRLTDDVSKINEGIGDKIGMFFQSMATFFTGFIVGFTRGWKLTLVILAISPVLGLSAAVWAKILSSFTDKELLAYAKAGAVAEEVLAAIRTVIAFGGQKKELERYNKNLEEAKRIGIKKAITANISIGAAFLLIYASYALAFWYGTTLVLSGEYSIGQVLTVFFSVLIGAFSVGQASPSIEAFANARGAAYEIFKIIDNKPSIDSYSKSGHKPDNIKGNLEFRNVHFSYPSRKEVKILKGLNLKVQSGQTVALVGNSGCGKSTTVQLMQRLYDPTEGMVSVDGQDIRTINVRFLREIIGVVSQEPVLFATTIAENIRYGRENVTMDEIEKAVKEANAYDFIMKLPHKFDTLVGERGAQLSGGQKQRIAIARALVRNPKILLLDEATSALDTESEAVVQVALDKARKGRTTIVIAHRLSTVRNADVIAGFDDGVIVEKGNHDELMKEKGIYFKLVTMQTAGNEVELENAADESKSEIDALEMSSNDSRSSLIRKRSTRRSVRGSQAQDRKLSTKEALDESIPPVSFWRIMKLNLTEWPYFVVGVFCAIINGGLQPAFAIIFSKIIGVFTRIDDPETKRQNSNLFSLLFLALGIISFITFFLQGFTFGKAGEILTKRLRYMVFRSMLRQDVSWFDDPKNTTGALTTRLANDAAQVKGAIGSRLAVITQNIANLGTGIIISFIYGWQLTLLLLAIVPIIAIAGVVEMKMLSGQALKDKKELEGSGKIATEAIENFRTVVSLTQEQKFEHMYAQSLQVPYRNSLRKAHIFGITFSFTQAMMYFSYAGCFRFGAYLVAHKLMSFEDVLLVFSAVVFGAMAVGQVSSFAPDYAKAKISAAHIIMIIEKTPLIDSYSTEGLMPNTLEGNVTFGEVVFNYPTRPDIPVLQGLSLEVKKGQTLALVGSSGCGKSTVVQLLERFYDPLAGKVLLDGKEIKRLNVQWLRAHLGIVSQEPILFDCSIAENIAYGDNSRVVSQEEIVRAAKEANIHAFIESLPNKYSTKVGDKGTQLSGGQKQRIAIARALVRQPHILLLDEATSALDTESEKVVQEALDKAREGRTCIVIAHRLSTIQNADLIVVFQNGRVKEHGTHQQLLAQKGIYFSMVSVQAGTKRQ

## CC[C@H]1OC(=O)[C@H](C)[C@@H](O[C@H]2C[C@@](C)(OC)[C@@H](O)[C@H](C)O2)[C@H](C)[C@@H](O[C@@H]2O[C@H](C)C[C@H](N(C)C)[C@H]2O)[C@](C)(O)C[C@@H](C)CN(C)[C@H](C)[C@@H](O)[C@]1(C)O [azithromycin]
[1]
  increase in the AUC: 32-39%

## CCCCC(=O)N(Cc1ccc(-c2ccccc2-c2nnn[nH]2)cc1)[C@H](C(=O)O)C(C)C [valsartan]
[2]
  increase in Cmax: approximately 2.3 fold
  increase in the AUC: ~6 fold
[3]
  Valsartan exposure increased: ~6 fold

## C[C@H]1O[C@@H](O[C@H]2[C@@H](O)C[C@H](O[C@H]3[C@@H](O)C[C@H](O[C@H]4CC[C@@]5(C)[C@H](CC[C@@H]6[C@@H]5C[C@@H](O)[C@]5(C)[C@@H](C7=CC(=O)OC7)CC[C@]65O)C4)O[C@@H]3C)O[C@@H]2C)C[C@H](O)[C@@H]1O [digoxin]
[4]
  effect of alisporivir on renal clearance: did not affect
  increase in Cmax: ~1.8 fold
  increase in the AUC: ~2.6 fold

## CC(C)n1c(/C=C/C(O)CC(O)CC(=O)O)c(-c2ccc(F)cc2)c2ccccc21 (centres unmarked) [fluvastatin]
[5]
  T1/2 when administered with alisporivir: longer

## C/C=C/C[C@@H](C)[C@@H](O)[C@H]1C(=O)N[C@@H](CC)C(=O)N(C)[C@H](C)C(=O)N(CC)[C@@H](C(C)C)C(=O)N[C@@H](C(C)C)C(=O)N(C)[C@@H](CC(C)C)C(=O)N[C@@H](C)C(=O)N[C@H](C)C(=O)N(C)[C@@H](CC(C)C)C(=O)N(C)[C@@H](CC(C)C)C(=O)N(C)[C@@H](C(C)C)C(=O)N1C [alisporivir]
[6]
  T1/2 when administered with telaprevir: shorter
[7]
  inhibition of UGT1A1: does not inhibit
[8]
  inhibition of P-gp: inhibitor
[9]
  inhibition of OATP1B3: inhibitor
[10]
  pIC50: 6.15
[11]
  inhibition of MRP2: inhibitor
[12]
  inhibition of CYP3A4: time-dependent inhibitor of CYP3A4
[13]
  inhibition of UGT2B7: does not inhibit
[14]
  inducing effects on CYP isozymes: no inducing effects
[15]
  T1/2 when administered with boceprevir: shorter
[16]
  pKi: 5.23
[17]
  inhibition of BSEP: inhibitor
[18]
  inhibition of OATP1B1: inhibitor
[19]
  inhibition of NTCP: inhibitor
[20]
  pIC50: 6.15
[21]
  anti-HIV-1 potency relative to CsA: approximately 10 fold

## CCC[C@H](NC(=O)[C@@H]1[C@H]2CCC[C@H]2CN1C(=O)[C@@H](NC(=O)[C@@H](NC(=O)c1cnccn1)C1CCCCC1)C(C)(C)C)C(=O)C(=O)NC1CC1 [telaprevir]
[22]
  T1/2 when administered with alisporivir: longer
  increase in the Cmax: ~2.4 fold

## CC(C)c1c(C(=O)Nc2ccccc2O)c(-c2ccccc2)c(-c2ccc(F)cc2)n1CCC(O)CC(O)CC(=O)O (centres unmarked) [o-OH-atorvastatin]
[23]
  increase in exposure (AUC): ~9 fold
  increase in exposure (Cmax): approximately 7 fold

## CN(C)CCC[C@@]1(c2ccc(F)cc2)OCc2cc(C#N)ccc21 [escitalopram]
[24]
  T1/2 when administered with alisporivir: similar

## CC(C)(C)NC(=O)N[C@H](C(=O)N1C[C@H]2[C@@H]([C@H]1C(=O)NC(CC1CCC1)C(=O)C(N)=O)C2(C)C)C(C)(C)C (some centres unmarked) [boceprevir]
[25]
  T1/2 when administered with alisporivir: similar
  increase in the Cmax: ~47%

## c1cnc(N2CCNCC2)nc1 [1-PP]
[26]
  AUC increase (metabolite of buspirone): 12-15%
